Reference: US7423175B2, “Hydroxy-tetrahydro-naphthalenylurea derivatives” (Bayer Healthcare AG, priority 2003, dated 2008)

Legend:
human VR1 = molecular target: T1, human VR1 (Homo sapiens, UniProt Q8NER1); assay: Capsaicin-induced Ca2+ influx in the human VR1-transfected CHO cell line (Assay 1); type: cell-based; conditions: human VR1-CHOluc9aeq cells, stimulation with 10 nM capsaicin; read-out: activity class (IC50)
T1 construct: expressed in transfected cells; host or cells: CHOluc9aeq (CHO cells with aequorin and CRE-luciferase reporter genes)
T1 sequence (Q8NER1 whole entry): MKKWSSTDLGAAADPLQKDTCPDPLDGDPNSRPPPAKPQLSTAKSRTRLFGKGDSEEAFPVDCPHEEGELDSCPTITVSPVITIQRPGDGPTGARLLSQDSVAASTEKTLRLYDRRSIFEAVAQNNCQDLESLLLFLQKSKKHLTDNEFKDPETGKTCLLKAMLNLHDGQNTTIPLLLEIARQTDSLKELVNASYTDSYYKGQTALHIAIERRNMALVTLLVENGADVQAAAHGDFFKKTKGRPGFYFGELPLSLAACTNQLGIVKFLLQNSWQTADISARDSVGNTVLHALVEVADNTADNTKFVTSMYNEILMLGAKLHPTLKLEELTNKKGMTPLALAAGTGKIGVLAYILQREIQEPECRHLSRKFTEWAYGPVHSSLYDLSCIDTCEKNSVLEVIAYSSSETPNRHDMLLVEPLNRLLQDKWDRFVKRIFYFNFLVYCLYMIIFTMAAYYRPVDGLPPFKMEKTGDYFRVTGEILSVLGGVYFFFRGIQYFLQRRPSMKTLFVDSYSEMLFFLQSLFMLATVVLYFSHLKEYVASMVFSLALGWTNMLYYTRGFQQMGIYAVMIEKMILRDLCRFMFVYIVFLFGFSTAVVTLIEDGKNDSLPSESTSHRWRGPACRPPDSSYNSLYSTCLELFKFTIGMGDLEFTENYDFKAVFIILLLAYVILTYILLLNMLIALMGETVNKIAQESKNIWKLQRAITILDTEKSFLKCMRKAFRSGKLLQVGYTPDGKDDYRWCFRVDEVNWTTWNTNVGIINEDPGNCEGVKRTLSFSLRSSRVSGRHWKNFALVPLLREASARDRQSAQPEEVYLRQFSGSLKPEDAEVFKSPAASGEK
Excerpt: [Measurement of Capsalcin-Induced Ca^2+ Influx in the Human VR1-Transfected CHO Cell Line] (Assay 1)
(1) Establishment of the Human VR1-CHOluc9aeq Cell Line
Human vanilloid receptor (hVR1) cDNA was cloned from libraries of axotomized dorsal root ganglia (WO 00/29577). The cloned hVR1 cDNA was constructed with pcDNA3 vector and transfected into a CHOluc9aeq cell line. The cell line contains aequorin and CRE-luciferase reporter genes as read-out signals. The transfectants were cloned by limiting dilution in selection medium (DMEM/F12 medium (Gibco BRL) supplemented with 10% FCS, 1.4 mM Sodium pyruvate, 20 mM HEPES, 0.15% Sodium bicarbonate, 100 U/ml penicillin, 100 μg/ml streptomycin, 2 mM glutamine, non-essential amino acids and 2 mg/ml G418). Ca^2+ influx was examined in the capsaicin-stimulated clones. A high responder clone was selected and used for further experiments in the project. The human VR1-CHOluc9aeq cells were maintained in the selection medium and passaged every 3-4 days at 1-2.5×10^5 cells/flask ([…]).
(2) Measurement of Ca^2+ Influx Using FDSS-3000
Human VR1-CHOluc9aeq cells were suspended in a culture medium which is the same as the selection medium except for G418 and seeded at a density of 1,000 cells per well into 384-well plates (black walled clear-base/Nalgei Nunc International). Following the culture for 48 hrs the medium was changed to 2 μM Fluo-3 AM (Molecular Probes) and 0.02% Puronic F-127 in assay buffer (Hank's balanced salt solution (HBSS), 17 mM HEPES (pH7.4), 1 mM Probenecid, 0.1% BSA) and the cells were incubated for 60 min at 25° C. After washing twice with assay buffer the cells were incubated with a test compound or vehicle for 20 min at 25° C. Mobilization of cytoplasmic Ca^2+ was measured by FDSS-3000 (λex=488 nm, λem=546 nm/Hamamatsu Photonics) for 60 sec after the stimulation with 10 nM capsaicin. Integral R was calculated and compared with controls.
Results in capsaicin-induced Ca^2+ influx assay in the human VR1-transfected CHO cell line (Assay 1) are shown in Examples and tables of the Examples below. For practical reasons, the compounds are grouped in four classes based on activity as follows: IC50=A(< or =)0.1 μM<B(< or =)0.5 μM<C(< or =)1 μM<D

Row | Compound | IC50 (human VR1) [nM] | melting point [°C]
1 | O=C(NCCOc1ccc(F)cc1)Nc1cccc2c1CC(O)CC2 (centres unmarked) [Example 1-1, N-[2-(4-Fluorophenoxy)ethyl]-N′-(7-hydroxy-5,6,7,8-tetrahydronaphthalen-1-yl)urea] | < 100 | 167 to 169
2 | O=C(NCCOc1ccccc1F)Nc1cccc2c1CC(O)CC2 (centres unmarked) [Example 1-2, N-[2-(2-Fluorophenoxy)ethyl]-N′-(7-hydroxy-5,6,7,8-tetrahydro-1-naphthalenyl)-urea] | < 100 | 131 to 136
3 | CCOC(=O)c1c(F)cccc1OCCNC(=O)Nc1cccc2c1CC(O)CC2 (centres unmarked) [Example 1-3, Ethyl 2-Fluoro-6-{2-[3-(7-hydroxy-5,6,7,8-tetrahydronaphthalen-1-yl)-ureido]-ethoxy}benzoate] | < 100 | 165 to 166
4 | O=C(NCCOc1cc(C(F)(F)F)cc(C(F)(F)F)c1)Nc1cccc2c1CC(O)CC2 (centres unmarked) [Example 1-4, N-{2-[3,5-Bis(trifluoromethyl)phenoxy]ethyl}-N′-(7-hydroxy-5,6,7,8-tetrahydronaphthalen-1-yl)urea] | < 100 | 144 to 149
5 | O=C(NCCOc1ccccc1N1CCCCC1)Nc1cccc2c1CC(O)CC2 (centres unmarked) [Example 1-5, N-(7-Hydroxy-5,6,7,8-tetrahydronaphthalen-1-yl)-N′-[2-(2-piperidin-1-yl-phenoxy)ethyl]urea] | < 100 | 128 to 136
6 | COc1ccccc1OCCNC(=O)Nc1cccc2c1CC(O)CC2 (centres unmarked) [Example 1-6, N-(7-Hydroxy-5,6,7,8-tetrahydronaphthalen-1-yl)-N′-[2-(2-methoxyphenoxy)ethyl]urea] | > 1000 | 182 to 184
7 | O=C(NCCOc1ccc(F)cc1)Nc1cccc2c1C[C@H](O)CC2 [Example 1-7, N-[2-(4-Fluorophenoxy)ethyl]-N′-[(7R)-7-hydroxy-5,6,7,8-tetrahydronaphthalen-1-yl]urea] | < 100 | 111 to 113
8 | O=C(NCCOc1ccc(F)cc1)Nc1cccc2c1C[C@@H](O)CC2 [Example 1-8, N-[2-(4-Fluorophenoxy)ethyl]-N′-[(7S)-7-hydroxy-5,6,7,8-tetrahydronaphthalen-1-yl]urea] | < 100 | 112 to 113
9 | CCN(CCNC(=O)Nc1cccc2c1CC(O)CC2)c1cccc(C)c1 (centres unmarked) [Example 1-9, N-{2-[Ethyl(m-tolyl)amino]ethyl]-N′-(7-hydroxy-5,6,7,8-tetrahydro-1-naphthalenyl)urea] | < 100 | 149 to 150
10 | Cc1cccc(N(C)CCNC(=O)Nc2cccc3c2CC(O)CC3)c1 (centres unmarked) [Example 1-10, N-(7-Hydroxy-5,6,7,8-tetrahydronaphthalen-1-yl)-N′-{2-[methyl(m-tolyl)amino]-ethyl}urea] | < 100 | 160 to 162
11 | CCN(CCNC(=O)Nc1cccc2c1C[C@H](O)CC2)c1cccc(C)c1 [Example 1-11, N-{2-[Ethyl(m-tolyl)amino]ethyl}-N′-[(7R)-7-hydroxy-5,6,7,8-tetrahydro-1-naphthalenyl]urea] | < 100 | 143 to 144
12 | CCN(CCNC(=O)Nc1cccc2c1C[C@@H](O)CC2)c1cccc(C)c1 [Example 1-12, N-{2-[Ethyl(m-tolyl)amino]ethyl}-N′-[(7S)-7-hydroxy-5,6,7,8-tetrahydro-1-naphthalenyl]urea] | < 100 | 136 to 137
13 | CN(CCCNC(=O)Nc1cccc2c1CC(O)CC2)c1ccccc1 (centres unmarked) [Example 1-13, N-(7-Hydroxy-5,6,7,8-tetrahydronaphthalen-1-yl)-N′-[3-(methyl-phenyl-amino)propyl]urea] | < 100 | 125 to 126
